Laboratory results as given in patent US8809336B2, “Ortho-condensed pyridine and pyrimidine derivatives (e.g., purines) as protein kinases inhibitors” (Astex Therapeutics Limited, priority 2004, dated 2014).
pIC50: −log10 of the molar value. Where two headings read alike, the source gives them in different places.

Key:
[1] = target: T1, PKA catalytic domain (Homo sapiens, UniProt P17612); test: Measurement of PKA kinase inhibitory activity (IC50), 33P-ATP filter plate assay; assay type: biochemical
T1 construct: using the PKA catalytic domain from Upstate Biotechnology (#14-440); purchased Upstate Biotechnology 14-440
Description: A final concentration of 1 nM enzyme is used in a buffer that includes 20 mM MOPS pH 7.2, 40 μM ATP/γ^33P-ATP and […] substrate. Compounds are added in dimethylsulphoxide (DMSO) solution to a final DMSO concentration of 2.5%. The reaction is allowed to proceed for 20 minutes before addition of excess orthophosphoric acid to quench activity. Unincorporated γ^33P-ATP is then separated from phosphorylated proteins on a Millipore MAPH filter plate. The plates are washed, scintillant is added and the plates are then subjected to counting on a Packard Topcount.

[2] = target: T2, PKB-PIF fusion protein (Homo sapiens, UniProt P31751); test: Measurement of PKB kinase inhibitory activity (IC50), 33P-ATP phosphocellulose filter assay; assay type: biochemical
T2 construct: PIF (fusion partner); made in house
T2 sequence (P31751 with tags, fused parts or gaps limits assumed): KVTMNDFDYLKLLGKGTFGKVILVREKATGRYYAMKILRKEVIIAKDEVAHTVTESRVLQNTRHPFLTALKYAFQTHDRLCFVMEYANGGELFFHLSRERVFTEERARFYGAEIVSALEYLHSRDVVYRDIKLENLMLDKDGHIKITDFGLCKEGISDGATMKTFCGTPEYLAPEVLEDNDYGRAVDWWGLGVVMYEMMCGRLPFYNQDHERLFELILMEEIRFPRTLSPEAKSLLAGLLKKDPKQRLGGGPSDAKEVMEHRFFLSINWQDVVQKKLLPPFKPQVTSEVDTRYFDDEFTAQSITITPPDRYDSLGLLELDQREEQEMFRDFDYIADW
Description: The inhibition of protein kinase B (PKB) activity by compounds can be determined essentially as described by Andjelkovic et al. (Mol. Cell. Biol. 19, 5061-5072 (1999)) but using a fusion protein described as PKB-PIF and described in full by Yang et al (Nature Structural Biology 9, 940-944 (2002)). […] A final concentration of 0.6 nM enzyme is used in a buffer that includes 20 mM MOPS pH 7.2, 30 μM ATP/γ^33P-ATP and 25 μM substrate.
Compounds are added in DMSO solution to a final DMSO concentration of 2.5%. The reaction is allowed to proceed for 20 minutes before addition of excess orthophosphoric acid to quench activity. The reaction mixture is transferred to a phosphocellulose filter plate where the peptide binds and the unused ATP is washed away. After washing, scintillant is added and the incorporated activity measured by scintillation counting.
The % inhibition of the PKB activity is calculated and plotted in order to determine the concentration of test compound required to inhibit 50% of the PKB activity (IC50).

[3] = 1 nM enzyme, 40 μM ATP, 20 minutes, read-out: IC50, inhibition of PKA activity
[4] = 0.6 nM enzyme, 30 μM ATP, 25 μM AKTide-2T substrate, 20 minutes, read-out: IC50, inhibition of PKB activity

Row | SMILES | pIC50 [1, 3] | pIC50 [2, 4] | pIC50 [1] | pIC50 [2]
1 | COc1ccc(C2(CN)CCN(c3ncnc4[nH]ccc34)CC2)cc1 [Example 38, C-[4-(4-Methoxyphenyl)-1-(7H-pyrrolo[2,3-d]pyrimidin-4-yl)piperidin-4-yl]methylamine] | > 5.00 | > 5.00 | – | –
2 | NCC1(c2ccc(OCc3ccccc3)cc2)CCN(c2ncnc3[nH]ccc23)CC1 [Example 40, C-[4-(4-Benzyloxyphenyl)-1-(7H-pyrrolo[2,3-d]pyrimidin-4-yl)piperidin-4-yl]methylamine] | > 5.00 | > 5.00 | – | –
3 | CNCC1(c2ccc(Cl)cc2)CCN(c2ncnc3[nH]ccc23)CC1 [Example 42, [4-(4-Chloro-phenyl)-1-(7H-pyrrolo[2,3-d]pyrimidin-4-yl)-piperidin-4-ylmethyl]-methyl-amine] | – | – | > 5.00 | > 5.00
4 | CN(C)C1(Cc2ccc(Cl)cc2)CCN(c2ncnc3[nH]ccc23)CC1 [Example 44, [4-(4-Chlorobenzyl)-1-(7H-pyrrolo[2,3-d]pyrimidin-4-yl)-piperidin-4-yl]-dimethylamine] | > 5.00 | > 5.00 | – | –

Further lines, with some results ahead:

Row | pIC50 [1, 3] | pIC50 [2, 4] | SMILES | pIC50 [1] | pIC50 [2]
5 | > 5.00 | > 5.00 | NCC1(c2cccc(Cl)c2)CCN(c2ncnc3[nH]ccc23)CC1 [Example 26, C-[4-(3-Chlorophenyl)-1-(7H-pyrrolo[2,3-d]pyrimidin-4-yl)piperidin-4-yl]methylamine] | – | –
6 | > 5.00 | > 5.00 | NCC1(c2ccc(Cl)c(Cl)c2)CCN(c2ncnc3[nH]ccc23)CC1 [Example 28, C-[4-(3,4-Dichlorophenyl)-1-(7H-pyrrolo[2,3-d]pyrimidin-4-yl)piperidin-4-yl]methylamine] | – | –
7 | > 5.00 | > 5.00 | NCC1(c2ccc(OC(F)(F)F)cc2)CCN(c2ncnc3[nH]cnc23)CC1 [Example 31, C-[1-(9H-Purin-6-yl)-4-(4-trifluoromethoxyphenyl)piperidin-4-yl]methylamine] | – | –
8 | > 5.00 | > 5.00 | NCC1(c2ccc(C(F)(F)F)cc2)CCN(c2ncnc3[nH]ccc23)CC1 [Example 32, C-[1-(7H-Pyrrolo[2,3-d]pyrimidin-4-yl)-4-(4-trifluoromethylphenyl)piperidin-4-yl]methylamine] | – | –
